Measurements reported in patent US20160120863A1, “SLC2A TRANSPORTER INHIBITORS” (IOMET PHARMA LTD., priority 2013, published 2016).

Legend:
Format in all cases: cell-based
human GLUT1 = molecular target: T1, human GLUT1 (Homo sapiens, UniProt P11166); experiment: [3H]-deoxy-D-glucose uptake assay, GLUT1; settings: [3H]-deoxy-D-glucose uptake in HEK293 cells stably expressing human GLUT1
T1 construct: expressed in transfected cells
T1 sequence (P11166 1-492): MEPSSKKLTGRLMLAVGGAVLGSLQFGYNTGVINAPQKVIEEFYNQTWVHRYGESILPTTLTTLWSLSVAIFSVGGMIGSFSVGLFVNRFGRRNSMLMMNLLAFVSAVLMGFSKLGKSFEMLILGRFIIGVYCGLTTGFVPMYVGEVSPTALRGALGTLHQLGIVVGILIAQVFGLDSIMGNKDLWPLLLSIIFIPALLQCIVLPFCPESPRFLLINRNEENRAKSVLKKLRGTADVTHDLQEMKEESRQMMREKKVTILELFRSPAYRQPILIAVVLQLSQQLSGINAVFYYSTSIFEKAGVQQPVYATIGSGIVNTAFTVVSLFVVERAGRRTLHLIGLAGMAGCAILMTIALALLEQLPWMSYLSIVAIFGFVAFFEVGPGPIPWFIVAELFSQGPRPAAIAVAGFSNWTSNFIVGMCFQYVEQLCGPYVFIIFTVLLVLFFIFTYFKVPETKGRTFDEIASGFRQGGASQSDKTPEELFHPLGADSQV
Summary of the method: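 HEK293 cells stably overexpressing human GLUT1 or GLUT2, seeded at 60,000 per well, treated with compounds in glucose-free uptake buffer for 30 min at 37 °C. [3H]-deoxy-D-glucose uptake quantified by scintillation counting after ice-cold PBS washes; IC50 determined.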

human GLUT2 = molecular target: T2, human GLUT2 (Homo sapiens, UniProt P11168); experiment: [3H]-deoxy-D-glucose uptake assay, GLUT2; settings: [3H]-deoxy-D-glucose uptake in HEK293 cells stably expressing human GLUT2
T2 construct: expressed in transfected cells
T2 sequence (P11168 1-524): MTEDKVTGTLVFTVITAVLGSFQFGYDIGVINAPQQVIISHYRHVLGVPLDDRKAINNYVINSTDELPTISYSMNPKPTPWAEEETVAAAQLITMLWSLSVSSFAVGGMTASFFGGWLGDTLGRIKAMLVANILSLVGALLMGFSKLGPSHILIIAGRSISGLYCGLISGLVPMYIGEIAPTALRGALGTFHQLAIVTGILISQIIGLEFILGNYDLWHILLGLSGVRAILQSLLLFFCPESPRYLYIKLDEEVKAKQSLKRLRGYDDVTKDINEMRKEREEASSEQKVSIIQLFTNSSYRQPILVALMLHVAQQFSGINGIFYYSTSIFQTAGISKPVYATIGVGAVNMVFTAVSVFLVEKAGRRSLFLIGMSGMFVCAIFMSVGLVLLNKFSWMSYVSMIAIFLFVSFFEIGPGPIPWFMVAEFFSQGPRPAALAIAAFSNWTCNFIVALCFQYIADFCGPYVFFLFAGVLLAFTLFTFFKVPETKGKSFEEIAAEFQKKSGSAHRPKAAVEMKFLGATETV
Protocol: (§1) HEK293 cells were engineered to stably express either human GLUT1, GLUT2, GLUt3 or GLUT4 by transfection with the pReceiver-Lv105 plasmid, containing either hGLUT1, hGLUT2, hGLUT3, or hGLUT4 gene constructs with lipofectamine 2000, hGLUT1- hGLUT2- hGLUT3- or hGLUT4-overexpressing polyclonal populations were isolated under purinomycin selective pressure (1 μg/ml) and maintained in Dulbecco's modified Eagle's medium supplemented with 1 μg/ml purinomycin+10% foetal bovine serum (FBS).
60,000 cells per well were seeded overnight into poly-D-lysine coasted 96-well plates. […] 90 μl of test compounds were added in glucose-free uptake buffer and cells were incubated at 37° C. for 30 min.
(§2) Cells were then washed twice with ice-cold PBS and 100 μl of Microscint-20 was added per well. Glucose uptake was quantified with a scintillation counter. The half maximal inhibitory concentration (IC50) (a measure of the effectiveness of the test compound in inhibiting glucose uptake) was determined.

human GLUT3 = molecular target: T3, human GLUT3 (Homo sapiens, UniProt P11169); experiment: [3H]-deoxy-D-glucose uptake assay, GLUT3; settings: [3H]-deoxy-D-glucose uptake in HEK293 cells stably expressing human GLUT3
T3 construct: expressed in transfected cells
T3 sequence (P11169 1-496): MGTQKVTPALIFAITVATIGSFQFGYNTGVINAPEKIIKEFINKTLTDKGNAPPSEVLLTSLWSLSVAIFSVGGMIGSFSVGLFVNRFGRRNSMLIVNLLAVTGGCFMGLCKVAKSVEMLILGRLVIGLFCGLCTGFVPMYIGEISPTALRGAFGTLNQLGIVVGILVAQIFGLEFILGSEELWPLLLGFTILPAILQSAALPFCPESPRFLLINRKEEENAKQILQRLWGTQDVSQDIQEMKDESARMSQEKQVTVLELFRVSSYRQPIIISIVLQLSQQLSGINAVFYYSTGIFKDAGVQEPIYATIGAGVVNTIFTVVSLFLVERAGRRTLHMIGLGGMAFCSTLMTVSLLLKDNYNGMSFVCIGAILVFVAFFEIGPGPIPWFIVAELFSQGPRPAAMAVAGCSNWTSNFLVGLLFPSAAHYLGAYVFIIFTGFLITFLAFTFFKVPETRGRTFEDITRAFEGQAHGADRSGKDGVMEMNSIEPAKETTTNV
Protocol: as §1
(§3) 60,000 cells per well were seeded overnight into poly-D-lysine coasted 96-well plates. Following media removal, cells were washed twice in warm glucose-free uptake buffer (25 mM HEPES/KOH pH 7.4, 125 mM NaCl, 4.8 mM KCl, 1.2 mM MgSO4, 1.2 mM CaCl2, 1.2 mM KH2PO4). 90 μl of test compounds were added in glucose-free uptake buffer and cells were incubated at 37° C. for 30 min. 10 μl of [3H]-deoxy-D-glucose (0.25 μCi, 125 μM final assay concentration) was then added per well in glucose-free uptake buffer and uptake was allowed to proceed at 37° C. for 30 min.
as §2

human GLUT4 = molecular target: T4, human GLUT4 (Homo sapiens, UniProt P14672); experiment: [3H]-deoxy-D-glucose uptake assay, GLUT4; settings: [3H]-deoxy-D-glucose uptake in HEK293 cells stably expressing human GLUT4
T4 construct: expressed in transfected cells
T4 sequence (P14672 1-509): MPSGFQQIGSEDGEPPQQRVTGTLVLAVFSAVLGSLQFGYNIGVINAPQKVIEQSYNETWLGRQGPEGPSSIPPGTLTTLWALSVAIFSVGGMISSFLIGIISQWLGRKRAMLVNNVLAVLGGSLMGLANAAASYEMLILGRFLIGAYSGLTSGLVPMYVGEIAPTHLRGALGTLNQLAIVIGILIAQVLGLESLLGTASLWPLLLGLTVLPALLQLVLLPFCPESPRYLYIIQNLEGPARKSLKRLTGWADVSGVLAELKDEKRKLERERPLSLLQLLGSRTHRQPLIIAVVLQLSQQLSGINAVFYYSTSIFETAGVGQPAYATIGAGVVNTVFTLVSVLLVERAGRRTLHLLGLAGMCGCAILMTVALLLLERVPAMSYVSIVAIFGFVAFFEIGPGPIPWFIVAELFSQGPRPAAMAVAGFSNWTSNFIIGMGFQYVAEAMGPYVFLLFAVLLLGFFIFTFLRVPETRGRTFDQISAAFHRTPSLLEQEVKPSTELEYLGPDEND
Protocol: as §1, §3, §2

| SMILES | GLUT1 pIC50 (human GLUT1) | GLUT2 pIC50 (human GLUT2) | GLUT3 pIC50 (human GLUT3) | GLUT4 pIC50 (human GLUT4) |
| --- | --- | --- | --- | --- |
| O=C(c1cccc(F)c1)N1CCN(Cc2c(-c3ccc(Cl)cc3)nc3ccc(-c4ccccc4)cn23)CC1 [Compound 8] | +++ (pIC50 ≧ 6.00) | +++ (pIC50 ≧ 6.00) | +++ (pIC50 ≧ 6.00) | +++ (pIC50 ≧ 6.00) |
| Fc1ccc(-c2ccc3nc(-c4ccc(Cl)cc4)c(CN4CCOCC4)n3c2)cc1 [Compound 79] | +− (pIC50 < 4.00) | +− (pIC50 < 4.00) | + (pIC50 4.00-4.99) | ++ (pIC50 5.00-5.99) |
| Fc1ccccc1-c1ccc2nc(-c3ccc(Cl)cc3)c(CN3CCOCC3)n2c1 [Compound 80] | +++ (pIC50 ≧ 6.00) | – | +++ (pIC50 ≧ 6.00) | +++ (pIC50 ≧ 6.00) |
| Clc1ccc(-c2nc3ccc(-c4ccccc4Cl)cn3c2CN2CCOCC2)cc1 [Compound 116] | +++ (pIC50 ≧ 6.00) | – | +++ (pIC50 ≧ 6.00) | +++ (pIC50 ≧ 6.00) |
| Fc1cccc(F)c1-c1ccc2nc(-c3ccc(Cl)cc3)c(CN3CCOCC3)n2c1 [Compound 143] | +++ (pIC50 ≧ 6.00) | +++ (pIC50 ≧ 6.00) | +++ (pIC50 ≧ 6.00) | +++ (pIC50 ≧ 6.00) |
| Clc1ccc(-c2nc3cnc(C4CC4)cn3c2CN2CCOCC2)cc1 [Compound 164] | +++ (pIC50 ≧ 6.00) | +++ (pIC50 ≧ 6.00) | +++ (pIC50 ≧ 6.00) | +++ (pIC50 ≧ 6.00) |
| Cc1c(-c2ccccc2)ccc2nc(-c3ccc(Cl)cc3)c(CN3CCOCC3)n12 [Compound 170] | +++ (pIC50 ≧ 6.00) | – | +++ (pIC50 ≧ 6.00) | +++ (pIC50 ≧ 6.00) |
| CC(=O)N1CCN(Cc2c(-c3ccc(Cl)cc3)nc3cnc(C4CC4)cn23)CC1 [Compound 187] | +++ (pIC50 ≧ 6.00) | +++ (pIC50 ≧ 6.00) | +++ (pIC50 ≧ 6.00) | +++ (pIC50 ≧ 6.00) |
| CC(=O)N1CCN(Cc2c(-c3ccc(Cl)cc3)nc3ccc(-c4ccccc4C#N)cn23)CC1 [Compound 214] | +++ (pIC50 ≧ 6.00) | +++ (pIC50 ≧ 6.00) | +++ (pIC50 ≧ 6.00) | +++ (pIC50 ≧ 6.00) |
| Fc1cccc(F)c1-c1cn2c(CN3CCOCC3)c(-c3ccc(Cl)cc3)nc2cn1 [Compound 238] | +++ (pIC50 ≧ 6.00) | +++ (pIC50 ≧ 6.00) | +++ (pIC50 ≧ 6.00) | +++ (pIC50 ≧ 6.00) |
| CN(c1ccc2nc(-c3ccc(Cl)cc3)c(CN3CCOCC3)n2c1)S(C)(=O)=O [Compound 252] | +++ (pIC50 ≧ 6.00) | ++ (pIC50 5.00-5.99) | +++ (pIC50 ≧ 6.00) | +++ (pIC50 ≧ 6.00) |
| O=C(c1ccncc1)N1CCN(Cc2c(-c3ccc(Cl)cc3)nc3cnc(C4CC4)cn23)CC1 [Compound 265] | +++ (pIC50 ≧ 6.00) | +++ (pIC50 ≧ 6.00) | +++ (pIC50 ≧ 6.00) | +++ (pIC50 ≧ 6.00) |
| CC(=O)N1CCN(Cc2c(-c3ccc(Cl)cc3Cl)nc3cnc(C4CC4)cn23)CC1 [Compound 271] | +++ (pIC50 ≧ 6.00) | +++ (pIC50 ≧ 6.00) | +++ (pIC50 ≧ 6.00) | +++ (pIC50 ≧ 6.00) |
| O=C(c1cnccn1)N1CCN(Cc2c(-c3ccc(Cl)cc3Cl)nc3cnc(C4CC4)cn23)CC1 [Compound 273] | +++ (pIC50 ≧ 6.00) | +++ (pIC50 ≧ 6.00) | +++ (pIC50 ≧ 6.00) | +++ (pIC50 ≧ 6.00) |
| O=C(c1ccnnc1)N1CCN(Cc2c(-c3ccc(Cl)cc3Cl)nc3cnc(C4CC4)cn23)CC1 [Compound 296] | +++ (pIC50 ≧ 6.00) | +++ (pIC50 ≧ 6.00) | +++ (pIC50 ≧ 6.00) | +++ (pIC50 ≧ 6.00) |
| CC(=O)N1CCN(Cc2c(-c3ccc(Cl)cc3Cl)nc3cnc(C(C)C)cn23)CC1 [Compound 358] | +++ (pIC50 ≧ 6.00) | +++ (pIC50 ≧ 6.00) | – | – |
| CS(=O)(=O)Nc1ccc2nc(-c3ccc(Cl)cc3Cl)c(CN3CCNC(=O)C3)n2c1 [Compound 359] | +++ (pIC50 ≧ 6.00) | ++ (pIC50 5.00-5.99) | – | – |
| CS(=O)(=O)Nc1ccc2nc(-c3ccc(Cl)cc3Cl)c(CN3CCCOCC3)n2c1 [Compound 362] | +++ (pIC50 ≧ 6.00) | ++ (pIC50 5.00-5.99) | – | – |
| O=S1(=O)CCN(Cc2c(-c3ccc(Cl)cc3)nc3ccc(-c4ccccc4)cn23)CC1 [Compound 364] | ++ (pIC50 5.00-5.99) | +− (pIC50 < 4.00) | – | – |
| CS(=O)(=O)c1ccc2nc(-c3ccc(Cl)cc3)c(CN3CCOCC3)n2c1 [Compound 379] | ++ (pIC50 5.00-5.99) | +− (pIC50 < 4.00) | – | – |
| CC(=O)N1CCN(Cc2c(-c3ccc(Cl)cc3)nc3ccc(S(=O)(=O)N4CCCC4)cn23)CC1 [Compound 383] | +++ (pIC50 ≧ 6.00) | ++ (pIC50 5.00-5.99) | – | – |
| CCNS(=O)(=O)c1ccc2nc(-c3ccc(Cl)cc3)c(CN3CCN(C(C)=O)CC3)n2c1 [Compound 384] | +++ (pIC50 ≧ 6.00) | ++ (pIC50 5.00-5.99) | – | – |
